Assay results published in US20210290514A1, “An Antimicrobial Combination Composition Comprising Glycerol Derivatives and Bicyclic Compounds” (CLARIANT INTERNATIONAL LIMITED, priority 2018, published 2021).

How the values were obtained:
Experiment in all cases: in vitro growth inhibition of a microbial strain by compositions formulated to pH 5.5
Format in all cases: cell-based
Candida albicans = tested on: Candida albicans
Method: (§1) Several antimicrobial combinations compositions were formulated to pH of 5.5. These compositions were tested for their ability to inhibit in vitro the growth of a microbial strain. “Green” indicates a substantial inhibition, “Yellow” indicates an intermediate inhibition, and “Red” indicates little to no inhibition.

[1] = tested on: Aspergillus brasilliensis
Method: as §1

Echerichia coli = tested on: Echerichia coli
Method: as §1

Staphylococcus aureus = tested on: Staphylococcus aureus
Method: as §1

Pseudomonas aeruginosa = tested on: Pseudomonas aeruginosa
Method: as §1

CCCCC(CC)COCC(O)CO (stereo not shown) [Velsan ethylhexylglycerin, 3-[(2-ethylhexyl)oxy]-1,2-propanediol]
antimicrobial activity, Candida albicans (Candida albicans; 0.5%): Green
antimicrobial activity, Candida albicans (Candida albicans; 0.8%): Green
antimicrobial activity, Candida albicans (Candida albicans; 1.0%): Green
antimicrobial activity, Candida albicans (Candida albicans; 1.5%): Green
antimicrobial activity, Aspergillus brasilliensis ([1]; 0.5%): Red
antimicrobial activity, Aspergillus brasilliensis ([1]; 0.8%): Red
antimicrobial activity, Aspergillus brasilliensis ([1]; 1.0%): Red
antimicrobial activity, Aspergillus brasilliensis ([1]; 1.5%): Red
antimicrobial activity, Echerichia coli (Echerichia coli; 0.5%): Green
antimicrobial activity, Echerichia coli (Echerichia coli; 0.8%): Green
antimicrobial activity, Echerichia coli (Echerichia coli; 1.0%): Green
antimicrobial activity, Echerichia coli (Echerichia coli; 1.5%): Green
antimicrobial activity, Staphylococcus aureus (Staphylococcus aureus; 0.5%): Green
antimicrobial activity, Staphylococcus aureus (Staphylococcus aureus; 0.8%): Green
antimicrobial activity, Staphylococcus aureus (Staphylococcus aureus; 1.0%): Green
antimicrobial activity, Staphylococcus aureus (Staphylococcus aureus; 1.5%): Green
antimicrobial activity, Pseudomonas aeruginosa (Pseudomonas aeruginosa; 0.5%): Green
antimicrobial activity, Pseudomonas aeruginosa (Pseudomonas aeruginosa; 0.8%): Green
antimicrobial activity, Pseudomonas aeruginosa (Pseudomonas aeruginosa; 1.0%): Green
antimicrobial activity, Pseudomonas aeruginosa (Pseudomonas aeruginosa; 1.5%): Green

CCCCCCCCOCC(O)CO (stereo not shown) [Octylglycerin, 3-[(n-octyl)oxy]-1,2-propanediol]
antimicrobial activity, Candida albicans (Candida albicans; 0.5%): Green
antimicrobial activity, Candida albicans (Candida albicans; 0.8%): Green
antimicrobial activity, Candida albicans (Candida albicans; 1.0%): Green
antimicrobial activity, Candida albicans (Candida albicans; 1.5%): Green
antimicrobial activity, Aspergillus brasilliensis ([1]; 0.5%): Yellow
antimicrobial activity, Aspergillus brasilliensis ([1]; 0.8%): Green
antimicrobial activity, Aspergillus brasilliensis ([1]; 1.0%): Yellow
antimicrobial activity, Aspergillus brasilliensis ([1]; 1.5%): Yellow
antimicrobial activity, Echerichia coli (Echerichia coli; 0.5%): Green
antimicrobial activity, Echerichia coli (Echerichia coli; 0.8%): Green
antimicrobial activity, Echerichia coli (Echerichia coli; 1.0%): Green
antimicrobial activity, Echerichia coli (Echerichia coli; 1.5%): Green
antimicrobial activity, Staphylococcus aureus (Staphylococcus aureus; 0.5%): Green
antimicrobial activity, Staphylococcus aureus (Staphylococcus aureus; 0.8%): Green
antimicrobial activity, Staphylococcus aureus (Staphylococcus aureus; 1.0%): Green
antimicrobial activity, Staphylococcus aureus (Staphylococcus aureus; 1.5%): Green
antimicrobial activity, Pseudomonas aeruginosa (Pseudomonas aeruginosa; 0.5%): Green
antimicrobial activity, Pseudomonas aeruginosa (Pseudomonas aeruginosa; 0.8%): Green
antimicrobial activity, Pseudomonas aeruginosa (Pseudomonas aeruginosa; 1.0%): Green
antimicrobial activity, Pseudomonas aeruginosa (Pseudomonas aeruginosa; 1.5%): Green
